Laboratory results from patent publication US20120269762A1, “CAUSAL THERAPY OF DISEASES OR CONDITIONS ASSOCIATED WITH CNS OR PNS DEMYELINATION” (UNIVERSITY COLLEGE DUBLIN, NATIONAL UNIVERSITY OF IRELAND, …, priority 2009, published 2012).

Experiments:
[1] = clinical studies, oral administration; cited from earlier work
[2] = system: Lewis rats susceptible to develop experimental autoimmune encephalomyelitis (EAE); assay: EAE animal model of multiple Sclerosis (clinical score); assay type: in vivo; settings: versus saline-treated controls, n=5
[3] = system: organotypic cultures of rat hippocampus; assay: LPC-induced demyelination in hippocampal organotypic slice culture (MBP immunofluorescence); assay type: cell-based, Wistar rats; settings: 10 μm drug, 24 h post-LPC treatment (250 μg/ml LPC for 18 hours); compared to control
Procedure: Slices were maintained in normal organotypic medium for 10 days, at which point demyelination was induced by exposing the cultures to 250 μg/ml lysophosphatidylcholine (LPC) in the medium for 18 hours. After the LPC exposure, slices were returned to LPC free medium containing either 10 μm nefiracetam, 10 μm piracetam, 10 μm levetiracetam, 10 μm aniracetam, or no drug. […] Protoc. […] Labelled MBP in the cultures was imaged by confocal microscopy, and the degree of myelination was compared to time matched cultures that had not undergone LPC exposure.

[4] = system: C57BL/6 mice on cuprizone diet; assay: Cuprizone animal model of demyelination (luxol fast blue myelin staining, corpus callosum); assay type: in vivo; settings: 30 mg/kg/day i.p. from 5 days before return to normal diet; 1 day time-point after 6 weeks cuprizone (0.2% wt/wt) diet
Procedure: Demyelination was induced by feeding 12-14 week old C57B1/6 mice a diet containing 0.2% cuprizone (bis-cyclohexanone oxaldihydrazone) mixed into food pellets. This diet was maintained ad libitum for 6 weeks before returning animals to normal chow (T=0) in order to study remyelination. Control animals received control chow throughout the study. Commencing from 5 days before the return to control chow (T=−5 days), animals received daily intra-peritoneal injections of 30 mg/kg nefiracetam or vehicle only until the end of the study. At different time points, (T=1 day, T=3 days, T=7 days) animals were sacrificed, brains were snap frozen in Optimal Cutting Temperature (OTC) Compound and stored. Coronal frozen sections, 20 μm thick, were cut using a cryostat at approximately −1.8 mm from bregma. Sections were fixed in 70% ethanol, defatted in 50% chloroform/50% ethanol, rehydrated, and then myelin was stained with luxol fast blue. The degree of myelination in the corpus callosum was assessed based on the intensity of the luxol fast blue staining

Compound	tolerability in humans [1]	clinical score (magnitude and timing of clinical symptoms) ([2]; increasing doses (9, 15 and 30 mg/kg) i.p. daily from onset of clinical symptoms)	clinical score (magnitude and timing of clinical symptoms) ([2]; treated from day of inoculation with MBP)	MBP expression (percent of field of view positive for MBP) [3]	myelin levels (myelin density) in the corpus callosum [4]
Cc1cccc(C)c1NC(=O)CN1CCCC1=O [Nefiracetam, N-(2,6-dimethylphenyl)-2-(2-oxo-1-pyrrolidinyl)acetamide]	well tolerated	No significant differences were seen	No significant difference was seen	restored MBP expression to control levels or above	completely restored myelin levels to normal
COc1ccc(C(=O)N2CCCC2=O)cc1 [aniracetam]				restored MBP expression to control levels or above	
CC[C@H](C(N)=O)N1CCCC1=O [levetiracetam]				restored MBP expression to control levels or above	
NC(=O)CN1CCCC1=O [piracetam]				restored MBP expression to control levels or above	
